Results taken from patent US20250264459A1, “IN VITRO ASSAY TO PREDICT CARDIOTOXICITY” (Stemina Biomarker Discovery, Inc., priority 2018, published 2025).
Like-named read-outs stand apart in the source and are kept apart here.

Columns and labels:
[1] = cited from earlier work
[2] = system: human iPSC-CM (iCell Cardiomyocytes2); experiment: Spent-media metabolomics (LC-MS) cardiotoxicity prediction models, blinded test set; details: for Global Tox Model Prediction: cardiotoxic vs non-cardiotoxic, at the Exposure (μM) listed per compound in Table 3, model from confirmed metabolites and viability; for Functional Model Prediction: functional vs general/structural cardiotoxicants, at the Exposure (μM) listed per compound in Table 3
Method: The reproducibility of the putative biomarkers of cardiotoxicity identified during the dose-response study was evaluated using two replicates of the optimized single exposure levels identified through the dose-response analyses. […] Predictive models and feature rankings were performed using a combined set HILIC and CS features as well as each method alone.

SMILES	Cmax Total ([1]; therapeutic total Cmax) [µM]	Global Tox Model Prediction [2]	Functional Model Prediction [2]	Cmax Total ([1]; in vivo) [µM]
CC(=O)Oc1ccccc1C(=O)O [Acetylsalicylic Acid]	10	−	−	
CC(C)COCC(CN(Cc1ccccc1)c1ccccc1)N1CCCC1 (centres unmarked) [Bepridil]	3.3	+	+	
CS(=O)(=O)OCCCCOS(C)(=O)=O [Busulfan]	50	+	−	
CC[C@H](OC(C)=O)C(C[C@H](C)N(C)C)(c1ccccc1)c1ccccc1 [Levomethadyl Acetate]		+	+	0.6
Cc1cn(-c2cc(NC(=O)c3ccc(C)c(Nc4nccc(-c5cccnc5)n4)c3)cc(C(F)(F)F)c2)cn1 [Nilotinib]	3	+	−	
CCCc1nn(C)c2c(=O)[nH]c(-c3cc(S(=O)(=O)N4CCN(C)CC4)ccc3OCC)nc12 [Sildenafil]		−	−	
CC(C)NCC(O)c1ccc(NS(C)(=O)=O)cc1 (centres unmarked) [Sotalol]	15	+	+	
OC[C@H]1O[C@@](CO)(O[C@H]2O[C@H](CO)[C@@H](O)[C@H](O)[C@H]2O)[C@@H](O)[C@@H]1O [Sucrose]	1.8	−	−	
OC[C@@H](O)[C@H](O)[C@@H](O)CO [Xylitol]	0.5	−	−	
